Type in all cases: in vivo
The subject of data set [1] is abdominal aortic aneurysms in C57BL/6J mice with CaPO4 daubed infrarenal arteries. As to the kind of experiment: Abdominal aortic aneurysm model induced by CaPO4 daubed infrarenal aortas, naringenin or doxycycline gavage. The conditions noted are these: CaPO4 daubed C57BL/6 mice, daily gavage 7 days. On the procedure:
12-week old of male C57BL/6 mice were anesthetized via intraperitoneal injection of 0.1% pentobarbital sodium (injection according to body weight, […]). Infrarenal abdominal aortas were separated, and the separated infrarenal abdominal aortas were packaged by gauze (1 cm in width×3 cm in length) soaked in 0.5 M CaCl2 solution. After 10 minutes, the gauze was removed, gauze soaked in PBS was instead used to package the blood vessel for 5 min. CaCl2+and PO4^−3 in PBS can form CaPO4 crystal, that is, corresponding to daubing CaPO4 to the blood vessel. After packaging the blood vessel with gauze soaked in NaCl for 10 minutes, gauze soaked in PBS is instead used for 5 min, serving as NaCl daubed control group.
(§1) Gavage was started at the first day after surgery, and water, naringenin (50 mg/kg) (Sigma-Aldrich, St. Louis, Mo.) or doxycycline (100 mg/kg) (Sigma-Aldrich, St. Louis, Mo.) gavage were given on mice daily. Materials were removed from the mice 7 days after gavage. Mice were weighed, and blood was drawn from inner canthus by capillary, after centrifuged for 10 minutes at 6000 rotations, the supernatant was removed and blood fat was measured (kit is purchased from BIOSINO company). Then perfusion and washing were performed on mice using PBS. Blood vessels were separated, and four blood vessels were randomly chosen for each group for photographing. The results were shown in FIG. 1, wherein, NaCl was the group of daubing NaCl (n=11), CaPO4 was the group of daubing CaPO4 plus water feed (n=12), CaPO4+NGN was the group of daubing CaPO4 μlus naringenin gavage (n=11), and CaPO4+Dox was the group of daubing CaPO4 μlus doxycycline gavage (n=11).
The blood vessels were sliced, and the change of the diameters in infrarenal abdominal aortas of mice were identified by H.E. staining. […] The data in FIG. 2A were an average value±standard deviation.
The fracture degree of elastic lamina is also an index showing the severity of abdominal aortic aneurysms. The degradation of elastic lamina is divided into four grades. The first grade means that the degradation of elastic lamina is less than 25%, with the second grade of 25%-50%, the third grade of 50%-75%, and the fourth grade means the fracture is more than 75%. We used Gomori staining to identify the fracture situation of elastic lamina of infrarenal abdominal aortas of mice. […] The data in FIG. 2B were an average value±standard deviation.

The nature of data set [2]: Body weight and blood fat of CaPO4 treated C57BL/6J mice. As to the method: as §1
A further data set has as its system NMP-9 and NMP-2. Nature of the data set: Gelatin zymography, angiotensin II model. The conditions noted are these: AngII ApoE-/- mice; naringenin gavage; FIG. 8B. On the procedure: After extravasated blood in fresh removed blood vessels of infrarenal site in abdominal aortas of mice were cleared, and fat and connective tissues were removed, and blood vessels were cut into 1 cm ring, and put into 24-well plate. Blood vessels were cultured for 24 hours using 0.5 ml serum-free medium with high glucose. After the cultured supernatant protein was quantified, mercaptoethanol-free protein sample loading buffer was added, cryopreserved at −80° C. Water was used to prepare gelatin (Sigma-Aldrich, St. Louis, Mo.) into a concentration of 10 mg/ml, which was added to separation gel of protein electrophoresis according to the proportion of 1:10, causing the final concentration of gelatin as 1 mg/ml. Electrophoresis was performed in a voltage of 80V at 4° C. The gel was put into 0.25% Trixon-100 solution, and washing was performed twice in 30 minutes. […] Incubated gel was put into Coomassie brilliant blue to stain for 1-2 hours at room temperature, washed for 30 minutes with a solution having 30% methanol and 10% glacial acetic acid, a solution having 20% methanol and 10% glacial acetic acid, and a solution having 10% methanol and 5% glacial acetic acid, respectively, and then analyzed with Odyssey infrared fluorescence scanning system (LI-COR Biosciences, Lincoln, Nebr.). […]

A further data set deals with metalloproteinase NMP-9. As to the kind of experiment: Gelatin zymography, ApoE knockout mice after second round of angiotensin II. The conditions noted are these: abdominal aortas, naringenin gavage, FIG. 10D. On the procedure:
[…] Blood vessels were cultured for 24 hours using 0.5 ml serum-free medium with high glucose. After the cultured supernatant protein was quantified, mercaptoethanol-free protein sample loading buffer was added, cryopreserved at −80° C. Water was used to prepare gelatin (Sigma-Aldrich, St. Louis, Mo.) into a concentration of 10 mg/ml, which was added to separation gel of protein electrophoresis according to the proportion of 1:10, causing the final concentration of gelatin as 1 mg/ml. Electrophoresis was performed in a voltage of 80V at 4° C. The gel was put into 0.25% Trixon-100 solution, and washing was performed twice in 30 minutes. And then the gelatin was added to incubation solution (50 mM Tris, 0.2M NaCl, 5 mM CaCl2, 0.02% sodium azide), incubated for 24-48 hours at 37° C. Incubated gel was put into Coomassie brilliant blue to stain for 1-2 hours at room temperature, washed for 30 minutes with a solution having 30% methanol and 10% glacial acetic acid, a solution having 20% methanol and 10% glacial acetic acid, and a solution having 10% methanol and 5% glacial acetic acid, respectively, and then analyzed with Odyssey infrared fluorescence scanning system (LI-COR Biosciences, Lincoln, Nebr.). Both NMP-2 and NMP-9 are gelatinases, and can degrade gelatin; the places where gelatin is degraded are white, and other places are still black. […]

Where [3] appears, read: CaPO4 treated C57BL/6J mice, gavage 7 days, naringenin 50 mg/kg, doxycycline 100 mg/kg.

`O=C1C[C@@H](c2ccc(O)cc2)Oc2cc(O)cc(O)c21` [naringenin]: the “fracture of elastic lamina of infrarenal abdominal aortas (Gomori staining)” value in data set [1] (FIG. 2B) is “reverse the effect of CaPO4”. Also, the “diameters of infrarenal abdominal aortas (H.E. staining)” value in data set [1] (naringenin 50 mg/kg, doxycycline 100 mg/kg, average ± SD, CaPO4 + water 1.40±0.19, NaCl 0.77±0.06) is given as 1.03±0.18 mm. The “incidence rate and degree of bulge of blood vessels at infrarenal site” value in data set [1] (naringenin 50 mg/kg, doxycycline 100 mg/kg, vascular photos FIG. 1) was “reduce the incidence rate and degree of bulge”. In data set [2] (C57BL/6J mice, naringenin gavage 50 mg/kg, 7 days), the “body weights and blood fat levels” value is given as “does not affect”. Also, in data set [2] (setting [3]), the Body weight is given as 20.1 ± 1.41 g, the Cholesterol was found to be 3.53 ± 0.45 mmol and the Triglyceride came out at 0.97 ± 0.22 mmol. In the data set on NMP-9 and NMP-2, the “active form of NMP-9 and NMP-2 (gelatin zymography)” value is “do not change significantly”; the “zymogen form of MMP-9 (gelatin zymography)” value is recorded as “significantly decreases”. In the data set on metalloproteinase NMP-9, the “activity of metalloproteinase NMP-9 (gelatin zymography)” value is “significantly inhibit”.

The values above are taken from US9669005B2, “Use of naringenin in preparing drugs for preventing and/or treatment abdominal aortic aneurysm” (priority 2013, dated 2017).
